# Measurements from PubChem BioAssay AID2060610 (Molecular Pharmacology Branch, DTP, NCI, 2025).
# Where “and” joins values, the source holds several entries; their conditions need not be identical. Equal values may be shown once.
# Test system: 616215-338-R-J1-PDC complex spheroids, viability % test/control
# Test: Anticancer human tumor 616215-338-R-J1-PDC patient-derived colon adenocarcinoma cell line growth inhibition [CLK]
# Settings: for viability, T/C: stronger effect = lower value
# In short: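 Patient-derived tumor cells grown as complex spheroids with HUVEC endothelial cells and mesenchymal stem cells, treated with drug combinations. Concentrations descend in half-log steps from near clinical Cmax, or from 10 microM if Cmax unknown.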
# [1] = curve of first compound, second compound 0.0316 µM
# [2] = curve of first compound, second compound 0.1 µM
# [3] = curve of first compound, second compound 0.316 µM
# [4] = curve of first compound, second compound 1 µM
# [5] = curve of first compound, second compound 3.16 µM
# [6] = curve of first compound, second compound 10 µM
# [7] = second compound 0.0316 µM, first compound 0.00316 µM
# [8] = second compound 0.0316 µM, first compound 0.01 µM
# [9] = second compound 0.0316 µM, first compound 0.0316 µM
# [10] = second compound 0.0316 µM, first compound 0.1 µM
# [11] = second compound 0.0316 µM, first compound 0.316 µM
# [12] = second compound 0.0316 µM, first compound 1 µM
# [13] = second compound 0.1 µM, first compound 0.00316 µM
# [14] = second compound 0.1 µM, first compound 0.01 µM
# [15] = second compound 0.1 µM, first compound 0.0316 µM
# [16] = second compound 0.1 µM, first compound 0.1 µM
# [17] = second compound 0.1 µM, first compound 0.316 µM
# [18] = second compound 0.1 µM, first compound 1 µM
# [19] = second compound 0.316 µM, first compound 0.00316 µM
# [20] = second compound 0.316 µM, first compound 0.01 µM
# [21] = second compound 0.316 µM, first compound 0.0316 µM
# [22] = second compound 0.316 µM, first compound 0.1 µM
# [23] = second compound 0.316 µM, first compound 0.316 µM
# [24] = second compound 0.316 µM, first compound 1 µM
# [25] = second compound 1 µM, first compound 0.00316 µM
# [26] = second compound 1 µM, first compound 0.01 µM
# [27] = second compound 1 µM, first compound 0.0316 µM
# [28] = second compound 1 µM, first compound 0.1 µM
# [29] = second compound 1 µM, first compound 0.316 µM
# [30] = second compound 1 µM, first compound 1 µM
# [31] = second compound 3.16 µM, first compound 0.00316 µM
# [32] = second compound 3.16 µM, first compound 0.01 µM
# [33] = second compound 3.16 µM, first compound 0.0316 µM
# [34] = second compound 3.16 µM, first compound 0.1 µM
# [35] = second compound 3.16 µM, first compound 0.316 µM
# [36] = second compound 3.16 µM, first compound 1 µM
# [37] = second compound 10 µM, first compound 0.00316 µM
# [38] = second compound 10 µM, first compound 0.01 µM
# [39] = second compound 10 µM, first compound 0.0316 µM
# [40] = second compound 10 µM, first compound 0.1 µM
# [41] = second compound 10 µM, first compound 0.316 µM
# [42] = second compound 10 µM, first compound 1 µM
# 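Also: spheroids exposed to agents for 7 days.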
# 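For viability, T/C in this document: 100% = DMSO vehicle wells.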
smiles,measurement,setting,value
COc1cccc2c1C(=O)c1c(O)c3c(c(O)c1C2=O)CC(O)(C(=O)CO)CC3OC1CC(N)C(O)C(C)O1 (stereo not given),"viability, T/C",compound 0.0316 µM,102% and 112%
same,"viability, T/C",compound 0.1 µM,45.9% and 64.2%
same,"viability, T/C",compound 0.316 µM,40.4% and 49.8%
same,"viability, T/C",compound 1 µM,24% and 41.3%
same,"viability, T/C",compound 3.16 µM,0.74% and 0.78%
same,"viability, T/C",compound 10 µM,0.16% and 0.24%
same,IC50,curve of compound,142 nM and 299 nM
COc1c(OCCCN2CCOCC2)ccc2c3n(c(=NC(=O)c4cnc(N)nc4)nc12)CCN3 + CN1CCN(c2cc(C(=O)Nc3cc4cc(-c5cnn(C)c5)ccc4cn3)ccn2)CC1,IC50,[1],86.6 nM
same,IC50,[2],36.2 nM
same,IC50,[3],< 3.16 nM
same,IC50,[4],< 3.16 nM
same,IC50,[5],< 3.16 nM
same,IC50,[6],< 3.16 nM
same,"viability, T/C",[7],105%
same,"viability, T/C",[8],115%
same,"viability, T/C",[9],89.8%
same,"viability, T/C",[10],44%
same,"viability, T/C",[11],30.8%
same,"viability, T/C",[12],21.6%
same,"viability, T/C",[13],110%
same,"viability, T/C",[14],94.4%
same,"viability, T/C",[15],50.1%
same,"viability, T/C",[16],29.1%
same,"viability, T/C",[17],19.1%
same,"viability, T/C",[18],12.3%
same,"viability, T/C",[19],26.4%
same,"viability, T/C",[20],25.1%
same,"viability, T/C",[21],11.8%
same,"viability, T/C",[22],6.03%
same,"viability, T/C",[23],4.47%
same,"viability, T/C",[24],4.01%
same,"viability, T/C",[25],0.24%
same,"viability, T/C",[26],1.7%
same,"viability, T/C",[27],0.49%
same,"viability, T/C",[28],0.1%
same,"viability, T/C",[29],0.08%
same,"viability, T/C",[30],1.24%
same,"viability, T/C",[31],0.1%
same,"viability, T/C",[32],2.88%
same,"viability, T/C",[33],0.11%
same,"viability, T/C",[34],0.1%
same,"viability, T/C",[35],1.07%
same,"viability, T/C",[36],0.15%
same,"viability, T/C",[37],0.12%
same,"viability, T/C",[38],0.15%
same,"viability, T/C",[39],0.98%
same,"viability, T/C",[40],0.33%
same,"viability, T/C",[41],0.17%
same,"viability, T/C",[42],1.41%
CC(C)CC(NC(=O)C(Cc1ccccc1)NC(=O)c1cnccn1)B(O)O (stereo not given),"viability, T/C",compound 0.000949 µM,109% and 107%
same,"viability, T/C",compound 0.003 µM,109% and 97.9%
same,"viability, T/C",compound 0.00949 µM,0.2% and 0.21%
same,"viability, T/C",compound 0.03 µM,0.18% and 0.25%
same,"viability, T/C",compound 0.0949 µM,0.12% and 0.23%
same,"viability, T/C",compound 0.3 µM,0.85% and 0.21%
same,IC50,curve of compound,5.61 nM and 5.28 nM
O=c1[nH]cc(F)c(=O)[nH]1 + CN1CCN(c2cc(C(=O)Nc3cc4cc(-c5cnn(C)c5)ccc4cn3)ccn2)CC1,IC50,[1],796 nM
same,IC50,[2],692 nM
same,IC50,[3],< 31.6 nM
same,IC50,[4],< 31.6 nM
same,IC50,[5],< 31.6 nM
same,IC50,[6],< 31.6 nM
same,"viability, T/C",[9],98.6%
same,"viability, T/C",[10],119%
same,"viability, T/C",[11],64.4%
same,"viability, T/C",[12],46.2%
same,"viability, T/C","second compound 0.0316 µM, first compound 3.16 µM",42.4%
same,"viability, T/C","second compound 0.0316 µM, first compound 10 µM",50.6%
same,"viability, T/C",[15],121%
same,"viability, T/C",[16],109%
same,"viability, T/C",[17],61.2%
same,"viability, T/C",[18],49.6%
same,"viability, T/C","second compound 0.1 µM, first compound 3.16 µM",38.7%
same,"viability, T/C","second compound 0.1 µM, first compound 10 µM",41.1%
same,"viability, T/C",[21],31.9%
same,"viability, T/C",[22],34.7%
same,"viability, T/C",[23],41.8%
same,"viability, T/C",[24],33.3%
same,"viability, T/C","second compound 0.316 µM, first compound 3.16 µM",29.6%
same,"viability, T/C","second compound 0.316 µM, first compound 10 µM",26.6%
same,"viability, T/C",[27],0.14%
same,"viability, T/C",[28],1.14%
same,"viability, T/C",[29],2.43%
same,"viability, T/C",[30],0.08%
same,"viability, T/C","second compound 1 µM, first compound 3.16 µM",2.58%
same,"viability, T/C","second compound 1 µM, first compound 10 µM",2.28%
same,"viability, T/C",[33],0.08%
same,"viability, T/C",[34],0.42%
same,"viability, T/C",[35],1.29%
same,"viability, T/C",[36],0.07%
same,"viability, T/C","second compound 3.16 µM, first compound 3.16 µM",0.09%
same,"viability, T/C","second compound 3.16 µM, first compound 10 µM",0.13%
same,"viability, T/C",[39],0.07%
same,"viability, T/C",[40],1.38%
same,"viability, T/C",[41],4.56%
same,"viability, T/C",[42],0.1%
same,"viability, T/C","second compound 10 µM, first compound 3.16 µM",2.34%
same,"viability, T/C","second compound 10 µM, first compound 10 µM",0.19%
CCN1CCN(Cc2ccc(Nc3ncc(F)c(-c4cc(F)c5nc(C)n(C(C)C)c5c4)n3)nc2)CC1 + CNC(=O)c1ccc(Nc2nc(OC3CCCC3)c3c(-c4ccc5nc(C)oc5c4)c[nH]c3n2)c(OC)c1,IC50,[1],928 nM
same,IC50,[2],285 nM
same,IC50,[3],< 3.16 nM
same,IC50,[4],136 nM
same,IC50,[5],357 nM
same,IC50,[6],< 3.16 nM
same,"viability, T/C",[7],83%
same,"viability, T/C",[8],93.2%
same,"viability, T/C",[9],95.5%
same,"viability, T/C",[10],137%
same,"viability, T/C",[11],130%
same,"viability, T/C",[12],46%
same,"viability, T/C",[13],51.6%
same,"viability, T/C",[14],55%
same,"viability, T/C",[15],56.3%
same,"viability, T/C",[16],58%
same,"viability, T/C",[17],48.1%
same,"viability, T/C",[18],26.7%
same,"viability, T/C",[19],45.5%
same,"viability, T/C",[20],49.2%
same,"viability, T/C",[21],53.5%
same,"viability, T/C",[22],50.3%
same,"viability, T/C",[23],47.9%
same,"viability, T/C",[24],28.2%
same,"viability, T/C",[25],51.8%
same,"viability, T/C",[26],49.1%
same,"viability, T/C",[27],59.6%
same,"viability, T/C",[28],55%
same,"viability, T/C",[29],39.5%
same,"viability, T/C",[30],28.6%
same,"viability, T/C",[31],47.4%
same,"viability, T/C",[32],50.3%
same,"viability, T/C",[33],53%
same,"viability, T/C",[34],54.1%
same,"viability, T/C",[35],61.2%
same,"viability, T/C",[36],22.7%
same,"viability, T/C",[37],41.6%
same,"viability, T/C",[38],46.8%
same,"viability, T/C",[39],58.5%
same,"viability, T/C",[40],52.2%
same,"viability, T/C",[41],46%
same,"viability, T/C",[42],29.2%
